Values joined by “and” are separate entries in the source; they are usually repeats but may differ in a detail not shown here. Identical values can stand only once.
Columns and labels:
[1] = biological target: T1, Porcine synovial collagenase (Sus scrofa, UniProt P21692); assay: Porcine synovial collagenase activity with type I (calf skin) collagen, gel densitometry (PSC/CSC); assay type: biochemical; settings: acid-soluble calf skin collagen 0.8 μM, 35° C., pH 7.7; a range means 50% inhibition lay between the values; successive lines per compound = diastereomers, higher C18 mobility first
T1 construct: purified porcine synovial collagenase; from tissue; host or cells: pig synovium (synovial enzyme, purified)
T1 sequence (P21692 100-469): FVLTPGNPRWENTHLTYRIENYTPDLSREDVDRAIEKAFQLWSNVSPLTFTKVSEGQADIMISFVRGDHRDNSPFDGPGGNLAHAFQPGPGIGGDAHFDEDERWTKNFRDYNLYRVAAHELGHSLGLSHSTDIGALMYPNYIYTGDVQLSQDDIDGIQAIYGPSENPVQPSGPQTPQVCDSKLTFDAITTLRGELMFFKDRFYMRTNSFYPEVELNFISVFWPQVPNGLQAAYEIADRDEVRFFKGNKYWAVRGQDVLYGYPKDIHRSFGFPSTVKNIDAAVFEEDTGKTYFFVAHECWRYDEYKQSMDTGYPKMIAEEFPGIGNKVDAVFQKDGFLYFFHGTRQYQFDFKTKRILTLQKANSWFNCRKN
Procedure: Porcine synovial collagenase activity (PSC) was measured with type I collagen essentially as described by Darlak et al. (1990). Varying amounts of inhibitor were added to the acid-soluble calf skin collagen (0.8 μM) at 35° C. in 0.05M tris-HCl, 0.2M NaCl, 5 mM CaCl2, 0.25M glucose, pH 7.7. Collagen degradation was initiated by adding purified porcine synovial collagenase and the reactions were stopped by the addition of an equal volume of sample dilution buffer (Laemmli, 1970) followed by boiling for 2-3 min. Undegraded collagen was resolved from its degradation products by polyacrylamide slab gel electrophoresis as described by Laemmli (1970). The gels were fixed in isopropanol/acetic acid/water (100:40:300 v/v) and then stained with 1% Coomassie Blue R-250 in fixing solution. After destaining, the percentage of α1 chain converted to the corresponding TC fragment was estimated by densitometry using a Bio-Rad model 610 video densitometer. IC50 values were estimated from the dependence of the percent of collagen degraded on inhibitor concentration.

[2] = biological target: T2, pig synovial collagenase (Sus scrofa, UniProt P21692); assay: Pig synovial collagenase with fluorogenic substrate FS-7 (PSC/FS-7); assay type: biochemical; settings: substrate Dnp-Pro-Leu-Gly-Leu-Trp-Ala-D-Arg-NH2; successive lines per compound = diastereomers, higher C18 mobility first
T2 construct: purified porcine synovial collagenase; from tissue; host or cells: pig synovium (synovial enzyme, purified)
T2 sequence (P21692 100-469): T1 sequence (P21692 100-469)
Procedure: [The source words this procedure for another target and reports this target under the same test.] Recombinant human fibroblast collagenase (rHFC) and porcine synovial gelatinase (PSG) were assayed at 37° C. by the procedure of Stack and Gray (1989). The fluorogenic metalloproteinase substrate Dnp-Pro-Leu-Gly-Leu-Trp-Ala-D-Arg-NH2 was dissolved at an initial concentration of 10 μM in 0.05M tris-HCl, 0.2M NaCl, 5 mM CaCl2, pH 7.7. Hydrolysis of the substrate at the Gly-Leu bond results in an increase in fluorescence that was monitored using an SLM-500C spectrofluorometer with excitation at 280 nm and emission at 346 nm. The reaction was initiated by addition of the enzyme; after determining the initial rate of substrate hydrolysis an aliquot of inhibitor was added and the inhibited rate redetermined. For lower affinity inhibitors (IC50>>[E0 ], where E0 is the enzyme concentration), inhibitor potencies were determined from plots of log (A0 /Ai-1) vs. log [Inhibitor], where A0 is the activity measured in the absence of inhibitor and Ai is that measured in the presence of inhibitor at concentration i (Ambrose et al., 1950). For high affinity inhibitors (IC50 =[E0 ]) only an upper limit of inhibitor potency could be estimated (Dixon and Webb, 1979).

Row | Compound | IC50 [1] | IC50 [2]
1 | CC(C)CC(C(=O)N[C@@H](Cc1ccccc1)C(=O)N[C@@H](C)C(N)=O)C(C)C(=O)NO (single isomer, unassigned) [Compound 16, H4[ONHCOCH(CH3)]--DL--Leu Phe Ala--NH2] | 1 µM and > 3 µM | 
2 | H4[ONHCO]--DL--Leu Hal Ala--NH2 [Compound 5] | 25 to 30 µM | 21 µM
3 | H4[ONHCO]--DL--Leu I'-Hal--NH2 [Compound 7] | 300 to 500 µM | 280 µM
4 | H4[ONHCO]--DL--Leu Phe--NH2 [Compound 1] | 250 µM | 700 µM
5 | H4[ONHCO]--DL--Leu Trp--NH2 [Compound 2] | 180 µM | 370 µM
6 | HO--NH--CO--CH2 --CH(CH2 CH(CH3)2 --CO--Nal--Pro--NH2 [Compound 12] | 1 to 3 µM | 1.1 µM

From patent US5387610A, “Peptide derivatives of collagenase inhibitor” (Research Corporation Technologies, Inc., priority 1992, dated 1995)
